Data reported in PubChem BioAssay (NCI).
“And” between values parts separate entries of the source, which are not always exact repeats. Equal entries are not always repeated.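 Cultured in 96-well plates, cells were exposed to test compound for 48 hours across five concentrations. GI50 is the concentration that inhibits growth by half. TGI is the concentration that stops growth completely.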

How the values were obtained:
Test in all cases: NCI tumour cell line growth inhibition, 48 h
U251 CNS = tested on: U251 CNS
SNB-19 CNS = tested on: SNB-19 CNS
CAKI-1 renal = tested on: CAKI-1 renal
SF-295 CNS = tested on: SF-295 CNS
HL-60(TB) leukemia = tested on: HL-60(TB) leukemia
SK-MEL-28 melanoma = tested on: SK-MEL-28 melanoma
A498 renal = tested on: A498 renal
NCI-H522 lung = tested on: NCI-H522 lung
DU-145 prostate = tested on: DU-145 prostate
NCI/ADR-RES ovarian = tested on: NCI/ADR-RES ovarian

| SMILES | GI50 (U251 CNS) | TGI (U251 CNS) | GI50 (SNB-19 CNS) | TGI (SNB-19 CNS) | GI50 (CAKI-1 renal) | TGI (CAKI-1 renal) | GI50 (SF-295 CNS) | TGI (SF-295 CNS) | GI50 (HL-60(TB) leukemia) | TGI (HL-60(TB) leukemia) | GI50 (SK-MEL-28 melanoma) | TGI (SK-MEL-28 melanoma) | GI50 (A498 renal) | TGI (A498 renal) | GI50 (NCI-H522 lung) | TGI (NCI-H522 lung) | GI50 (DU-145 prostate) | TGI (DU-145 prostate) | GI50 (NCI/ADR-RES ovarian) | TGI (NCI/ADR-RES ovarian) |
| --- | --- | --- | --- | --- | --- | --- | --- | --- | --- | --- | --- | --- | --- | --- | --- | --- | --- | --- | --- | --- |
| CN1CCCC1c1cccnc1.O=C(O)c1ccccc1O.O=C([O-])c1ccccc1[OH2+].O=C([O-])c1ccccc1[OH2+].[Mn+2] (stereo unspecified) | > 100 µM | > 100 µM | > 100 µM | > 100 µM | > 100 µM | > 100 µM | > 100 µM | > 100 µM | > 100 µM | > 100 µM | > 100 µM | > 100 µM | > 100 µM | > 100 µM | 16.7 µM | 36.4 µM | > 100 µM | > 100 µM | > 100 µM | > 100 µM |
| C/C(=N\NC(=S)N1CCN(c2ccccn2)CC1)c1ncccn1 | 0.0796 µM | 5.45 µM and 11.8 µM |  | 19 µM | 0.447 µM | 16 µM | 0.0934 µM | 5.83 µM and 6.76 µM |  | 0.0274 µM and 0.103 µM | 0.566 µM | 7.1 µM and 14.1 µM |  | 6.19 µM and 16.2 µM | 0.0859 µM | 1.45 µM and 2.06 µM | 3.17 µM | 18.8 µM |  | 3.95 µM and 0.403 µM |
| Cn1c(C(=O)c2cccc3ccccc23)nc2ccccc21 | > 100 µM | > 100 µM | > 100 µM | > 100 µM | 61 µM | > 100 µM | > 100 µM | > 100 µM | > 100 µM | > 100 µM | > 100 µM | > 100 µM | 8.59 µM | > 100 µM | > 100 µM | > 100 µM | > 100 µM | > 100 µM | > 100 µM | > 100 µM |
| O=c1[nH]c(=S)[nH]c(-c2ccccc2)c1Cc1c(O)ccc2ccccc12 |  | > 100 µM |  | > 100 µM |  | > 100 µM |  | > 100 µM |  | 50.5 µM |  | > 100 µM |  | 44.7 µM |  | > 100 µM |  | > 100 µM |  | > 100 µM |
| Clc1ccc([I+]c2ccc(Cl)cc2Cl)c(Cl)c1 | 1.77 µM | 3.38 µM | 4.28 µM | 15.9 µM | 1.61 µM | 3.32 µM | 2.58 µM | 7.57 µM | 2.09 µM | 4.58 µM | 7.14 µM | 21.1 µM | 1.76 µM | 6.98 µM | 1.62 µM | 3.01 µM | 1.92 µM | 3.51 µM | 9.47 µM | 32 µM |
| COc1ccc(/C=N\Nc2nc(SCC(C)C)nc(-c3ccc(OC)cc3)c2C#N)cc1 | 0.988 µM | 14.9 µM | 6.81 µM | 33.3 µM | 1.55 µM | 3.96 µM | 8.58 µM | 28 µM | > 100 µM | > 100 µM | 30.8 µM | > 100 µM | 2.49 µM | 7.14 µM | 11.3 µM | 63.2 µM | 13.7 µM | > 100 µM | 10.8 µM | 85.4 µM |
| CCN(Cc1ccc(F)cc1)c1ccc(CO)c(C(F)(F)F)c1 | 4.1 µM | 18.4 µM | 15.3 µM | 28.6 µM | 13.9 µM | 28.7 µM | 3.3 µM | 16.5 µM | 15.8 µM | 41.9 µM | 14.1 µM | 27.1 µM | 0.122 µM | 0.287 µM | 12.5 µM | 26.9 µM | 16.7 µM | 31.8 µM | 13.7 µM | 28 µM |
| c1ccc(C2CCCCC2)c(OCCCCCN2CCNCC2)c1 | 1.82 µM | 4.2 µM | 3.49 µM | 14.4 µM | 2.81 µM | 10.9 µM | 2.36 µM | 6.04 µM | 1.72 µM | 3.94 µM | 1.81 µM | 3.57 µM | 4.54 µM | 20.7 µM | 10.3 µM | 28.5 µM | 4.17 µM | 16.2 µM | 7.07 µM | 29.2 µM |
| COc1ccc(C2CC(c3ccc(N(C)C)cc3)=NN2c2ccc(S(N)(=O)=O)cc2)cc1 (stereo unspecified) | 3.28 µM | > 100 µM | 5.94 µM | > 100 µM | 3.35 µM | > 100 µM | 3.42 µM | > 100 µM | 3.99 µM | 86.3 µM | 4.81 µM | 93.8 µM | 2.15 µM | 8.53 µM | 2.69 µM | 6.69 µM | 4.84 µM | > 100 µM | 4.73 µM | > 100 µM |
| COC1=C(OC)[C@]2(OC)c3c(O)c(OC)c4c(c3O[C@@]23O[C@@H](c2ccccc2)CC=C3C1=O)[C@@H](OC)C[C@H](c1ccccc1)O4 | 1.41 µM | 2.74 µM | 1.81 µM | 3.51 µM | 0.51 µM | 1.88 µM | 1.56 µM | 2.97 µM | 0.53 µM | 1.4 µM | 0.591 µM | 1.49 µM | 1.51 µM | 2.94 µM | 0.247 µM | 0.762 µM | 2.09 µM | 3.75 µM | 0.607 µM | 3.74 µM |
| COc1cc2c(cc1NC(=O)C(Cl)Cl)-c1ccc(NC(=O)C(Cl)Cl)cc1C2 | 0.245 µM | 0.708 µM | 0.461 µM | 2.06 µM | 1.01 µM | 4.04 µM | 0.371 µM | 1.12 µM | 0.568 µM | 3.37 µM | 0.611 µM | 1.76 µM | 0.551 µM | 1.89 µM | 5.83 µM | 19.7 µM | 0.265 µM | 0.804 µM | 0.789 µM | 4.42 µM |
| CN1C(=NCCO)NS(=O)(=O)c2ccccc21 |  | > 100 µM |  | > 100 µM |  | > 100 µM |  | > 100 µM |  | > 100 µM |  | > 100 µM |  | > 100 µM |  | > 100 µM |  | > 100 µM |  | > 100 µM |
